ChEMBL document CHEMBL4507279, “Data for DCP probe BI-9627” (2021)

Columns and labels:
[1] = biological target: 5-hydroxytryptamine receptor 5A (Homo sapiens) (UniProt P47898); conditions: Compound concentration 10.0 uM
[2] = biological target: hERG (voltage-gated inwardly rectifying potassium channel KCNH2) (Homo sapiens, UniProt Q12809); test: K+/HERG Eurofins-Panlabs selectivity data (BI); conditions: compound concentration 10 uM, read-out: % Ctrl
[3] = biological target: D(2) dopamine receptor (Homo sapiens) (UniProt P14416); test: D2S/HU Eurofins-Panlabs selectivity data (BI); conditions: Compound concentration 10.0 uM
D(2) dopamine receptor (Homo sapiens), sequence (P14416 whole entry): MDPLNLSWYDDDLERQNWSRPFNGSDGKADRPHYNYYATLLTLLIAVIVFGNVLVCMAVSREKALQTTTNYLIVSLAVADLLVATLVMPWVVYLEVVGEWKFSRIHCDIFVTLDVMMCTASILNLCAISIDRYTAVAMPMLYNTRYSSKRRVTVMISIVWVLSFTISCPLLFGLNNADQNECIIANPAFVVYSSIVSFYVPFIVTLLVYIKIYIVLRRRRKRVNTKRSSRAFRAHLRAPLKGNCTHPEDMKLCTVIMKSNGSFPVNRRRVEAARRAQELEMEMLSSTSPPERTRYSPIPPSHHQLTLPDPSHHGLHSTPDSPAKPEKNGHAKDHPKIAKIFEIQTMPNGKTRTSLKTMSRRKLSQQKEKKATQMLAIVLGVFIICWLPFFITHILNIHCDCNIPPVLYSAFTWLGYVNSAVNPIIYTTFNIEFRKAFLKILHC

[4] = biological target: Voltage-dependent L-type calcium channel subunit alpha-1C (diltiazem site) (Rattus norvegicus, UniProt P22002); test: CA+/DILSI/RA Eurofins-Panlabs selectivity data (BI); conditions: compound concentration 10 uM, read-out: % Ctrl
Voltage-dependent L-type calcium channel subunit alpha-1C (diltiazem site), sequence (P22002 whole entry): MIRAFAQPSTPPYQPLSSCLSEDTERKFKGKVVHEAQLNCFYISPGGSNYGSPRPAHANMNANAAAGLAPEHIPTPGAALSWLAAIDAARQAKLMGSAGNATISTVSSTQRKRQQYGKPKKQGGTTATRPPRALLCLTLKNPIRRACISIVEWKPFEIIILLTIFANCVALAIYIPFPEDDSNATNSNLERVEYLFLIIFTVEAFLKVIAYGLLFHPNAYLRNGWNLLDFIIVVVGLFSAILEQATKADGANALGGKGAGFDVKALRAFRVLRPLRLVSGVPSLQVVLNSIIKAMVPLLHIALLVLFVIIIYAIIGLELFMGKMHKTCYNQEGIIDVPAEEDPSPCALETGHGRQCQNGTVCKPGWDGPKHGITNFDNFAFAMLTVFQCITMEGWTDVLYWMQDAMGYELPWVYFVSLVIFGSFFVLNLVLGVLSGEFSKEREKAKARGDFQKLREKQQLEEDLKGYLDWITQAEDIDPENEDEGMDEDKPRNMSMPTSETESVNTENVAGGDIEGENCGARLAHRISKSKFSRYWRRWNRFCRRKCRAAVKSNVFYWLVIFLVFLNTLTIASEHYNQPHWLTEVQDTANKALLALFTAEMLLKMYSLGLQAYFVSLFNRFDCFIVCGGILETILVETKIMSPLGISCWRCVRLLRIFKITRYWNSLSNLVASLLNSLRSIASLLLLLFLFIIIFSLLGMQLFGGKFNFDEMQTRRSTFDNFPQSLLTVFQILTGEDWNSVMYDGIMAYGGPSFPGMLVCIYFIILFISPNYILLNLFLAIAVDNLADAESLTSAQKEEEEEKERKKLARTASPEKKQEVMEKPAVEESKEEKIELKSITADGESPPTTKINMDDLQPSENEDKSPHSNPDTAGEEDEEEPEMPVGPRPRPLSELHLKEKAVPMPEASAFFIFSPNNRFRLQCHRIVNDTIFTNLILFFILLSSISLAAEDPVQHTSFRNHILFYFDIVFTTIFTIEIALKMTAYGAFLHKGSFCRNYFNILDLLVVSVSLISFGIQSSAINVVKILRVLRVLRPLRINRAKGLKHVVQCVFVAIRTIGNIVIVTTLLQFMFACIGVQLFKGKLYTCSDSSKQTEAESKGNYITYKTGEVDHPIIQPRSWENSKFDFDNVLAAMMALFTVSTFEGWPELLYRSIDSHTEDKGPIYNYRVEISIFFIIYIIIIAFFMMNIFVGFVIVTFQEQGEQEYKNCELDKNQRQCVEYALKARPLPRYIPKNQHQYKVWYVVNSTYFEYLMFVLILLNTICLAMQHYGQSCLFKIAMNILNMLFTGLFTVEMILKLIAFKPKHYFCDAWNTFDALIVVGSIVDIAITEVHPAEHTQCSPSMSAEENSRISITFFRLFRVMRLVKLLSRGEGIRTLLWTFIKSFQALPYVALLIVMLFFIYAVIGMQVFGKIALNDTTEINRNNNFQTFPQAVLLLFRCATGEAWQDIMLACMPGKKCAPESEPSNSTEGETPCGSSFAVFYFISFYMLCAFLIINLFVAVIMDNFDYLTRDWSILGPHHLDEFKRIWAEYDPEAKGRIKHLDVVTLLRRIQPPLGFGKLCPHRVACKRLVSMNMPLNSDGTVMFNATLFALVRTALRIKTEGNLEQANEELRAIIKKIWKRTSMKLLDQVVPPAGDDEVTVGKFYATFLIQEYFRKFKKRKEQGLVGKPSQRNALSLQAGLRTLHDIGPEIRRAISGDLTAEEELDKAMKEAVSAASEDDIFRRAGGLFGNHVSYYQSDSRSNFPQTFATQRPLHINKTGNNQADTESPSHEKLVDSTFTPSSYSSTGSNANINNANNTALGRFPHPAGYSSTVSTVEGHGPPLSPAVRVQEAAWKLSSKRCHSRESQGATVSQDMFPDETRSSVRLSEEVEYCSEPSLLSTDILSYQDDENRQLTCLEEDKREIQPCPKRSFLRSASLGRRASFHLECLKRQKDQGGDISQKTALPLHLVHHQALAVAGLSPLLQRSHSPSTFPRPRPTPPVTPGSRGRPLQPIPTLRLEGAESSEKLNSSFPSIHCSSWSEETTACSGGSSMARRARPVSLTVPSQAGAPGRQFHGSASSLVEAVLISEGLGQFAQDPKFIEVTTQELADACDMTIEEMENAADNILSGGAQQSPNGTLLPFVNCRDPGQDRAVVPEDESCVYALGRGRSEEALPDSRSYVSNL

[5] = biological target: Prostaglandin E2 receptor EP4 subtype (Homo sapiens) (UniProt P35408); test: EP4/H Eurofins-Panlabs selectivity data (BI); conditions: Compound concentration 10.0 uM
[6] = biological target: Histamine H3 receptor (Homo sapiens) (UniProt Q9Y5N1); conditions: Compound concentration 10.0 uM
Histamine H3 receptor (Homo sapiens), sequence (Q9Y5N1 whole entry): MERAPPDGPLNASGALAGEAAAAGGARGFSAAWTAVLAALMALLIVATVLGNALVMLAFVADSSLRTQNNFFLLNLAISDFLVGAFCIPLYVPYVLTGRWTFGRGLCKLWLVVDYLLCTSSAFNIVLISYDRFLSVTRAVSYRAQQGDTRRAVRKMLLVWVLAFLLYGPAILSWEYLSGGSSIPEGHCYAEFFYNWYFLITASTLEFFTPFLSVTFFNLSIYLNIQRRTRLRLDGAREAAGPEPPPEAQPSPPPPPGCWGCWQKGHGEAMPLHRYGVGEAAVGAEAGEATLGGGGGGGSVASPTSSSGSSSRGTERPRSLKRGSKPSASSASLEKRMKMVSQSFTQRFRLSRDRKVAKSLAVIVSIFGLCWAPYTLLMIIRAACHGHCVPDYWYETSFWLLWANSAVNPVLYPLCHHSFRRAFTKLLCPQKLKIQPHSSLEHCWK

[7] = biological target: Glutamate receptor ionotropic, kainate 1 (Rattus norvegicus) (UniProt P22756); conditions: Compound concentration 10.0 uM
[8] = biological target: T1, Muscarinic acetylcholine receptor M1 (Homo sapiens) (UniProt P11229); test: M1/HU Eurofins-Panlabs selectivity data (BI); conditions: Compound concentration 10.0 uM
T1 sequence (whole entry): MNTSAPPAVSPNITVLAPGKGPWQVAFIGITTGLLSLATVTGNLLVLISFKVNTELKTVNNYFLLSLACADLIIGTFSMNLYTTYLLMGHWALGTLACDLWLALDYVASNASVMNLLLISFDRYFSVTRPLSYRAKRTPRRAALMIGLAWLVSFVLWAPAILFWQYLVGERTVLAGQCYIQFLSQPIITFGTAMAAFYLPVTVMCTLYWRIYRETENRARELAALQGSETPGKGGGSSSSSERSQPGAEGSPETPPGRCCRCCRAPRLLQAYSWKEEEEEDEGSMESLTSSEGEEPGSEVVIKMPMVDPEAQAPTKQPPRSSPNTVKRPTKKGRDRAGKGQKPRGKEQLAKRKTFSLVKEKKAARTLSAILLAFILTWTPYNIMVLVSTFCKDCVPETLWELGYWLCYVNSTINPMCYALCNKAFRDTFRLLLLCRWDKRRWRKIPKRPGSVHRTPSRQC

[9] = biological target: Substance-P receptor (Homo sapiens) (UniProt P25103); test: NK1/HU Eurofins-Panlabs selectivity data (BI); conditions: Compound concentration 10.0 uM
Substance-P receptor (Homo sapiens), sequence (P25103 whole entry): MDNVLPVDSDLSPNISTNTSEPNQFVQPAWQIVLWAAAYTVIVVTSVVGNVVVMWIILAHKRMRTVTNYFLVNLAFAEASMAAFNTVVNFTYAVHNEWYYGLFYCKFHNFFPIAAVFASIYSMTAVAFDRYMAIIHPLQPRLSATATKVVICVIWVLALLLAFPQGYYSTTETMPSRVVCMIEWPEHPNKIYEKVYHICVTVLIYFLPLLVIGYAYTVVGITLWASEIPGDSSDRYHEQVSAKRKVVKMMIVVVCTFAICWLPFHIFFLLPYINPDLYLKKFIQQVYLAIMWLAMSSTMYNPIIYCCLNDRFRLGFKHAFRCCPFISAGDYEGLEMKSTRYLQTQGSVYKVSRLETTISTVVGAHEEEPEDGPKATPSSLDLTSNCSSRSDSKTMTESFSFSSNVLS

[10] = biological target: Sodium/hydrogen exchanger 1 (Homo sapiens, UniProt P19634); test: pHi change assay with SLC9A1
[11] = biological target: D(2) dopamine receptor (Homo sapiens) (UniProt P14416); conditions: Compound concentration 10.0 uM

hERG (voltage-gated inwardly rectifying potassium channel KCNH2), sequence (Q12809 whole entry): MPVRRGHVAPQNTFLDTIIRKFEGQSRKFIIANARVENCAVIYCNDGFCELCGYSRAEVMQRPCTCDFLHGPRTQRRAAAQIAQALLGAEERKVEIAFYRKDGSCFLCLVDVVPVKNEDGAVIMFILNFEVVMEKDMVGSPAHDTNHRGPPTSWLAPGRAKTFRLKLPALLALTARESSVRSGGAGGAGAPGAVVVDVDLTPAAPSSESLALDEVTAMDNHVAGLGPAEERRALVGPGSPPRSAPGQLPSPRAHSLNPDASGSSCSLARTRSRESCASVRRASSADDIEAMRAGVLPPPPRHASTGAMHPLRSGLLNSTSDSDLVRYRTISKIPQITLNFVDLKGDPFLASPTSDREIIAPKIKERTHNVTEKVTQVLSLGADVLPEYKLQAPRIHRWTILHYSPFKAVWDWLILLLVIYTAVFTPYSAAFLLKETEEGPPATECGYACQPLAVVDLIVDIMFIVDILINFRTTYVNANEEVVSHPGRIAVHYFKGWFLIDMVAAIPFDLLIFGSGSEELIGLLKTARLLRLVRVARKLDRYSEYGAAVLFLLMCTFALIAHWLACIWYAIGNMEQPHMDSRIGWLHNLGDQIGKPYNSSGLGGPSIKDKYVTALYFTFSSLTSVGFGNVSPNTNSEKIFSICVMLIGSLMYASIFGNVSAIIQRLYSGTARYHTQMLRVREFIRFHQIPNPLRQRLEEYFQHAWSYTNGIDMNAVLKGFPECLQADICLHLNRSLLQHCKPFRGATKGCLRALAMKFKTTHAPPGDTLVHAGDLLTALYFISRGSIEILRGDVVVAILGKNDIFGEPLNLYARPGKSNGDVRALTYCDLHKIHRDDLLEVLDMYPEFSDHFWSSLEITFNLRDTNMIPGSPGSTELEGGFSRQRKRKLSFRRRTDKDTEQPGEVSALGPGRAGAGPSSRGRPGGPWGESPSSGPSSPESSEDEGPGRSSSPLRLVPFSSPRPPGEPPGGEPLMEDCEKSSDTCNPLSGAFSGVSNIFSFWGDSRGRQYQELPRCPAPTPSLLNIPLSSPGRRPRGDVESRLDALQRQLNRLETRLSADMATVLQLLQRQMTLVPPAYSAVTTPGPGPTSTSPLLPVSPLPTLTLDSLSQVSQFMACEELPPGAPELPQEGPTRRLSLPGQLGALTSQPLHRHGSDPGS
5-hydroxytryptamine receptor 5A (Homo sapiens), sequence (P47898 whole entry): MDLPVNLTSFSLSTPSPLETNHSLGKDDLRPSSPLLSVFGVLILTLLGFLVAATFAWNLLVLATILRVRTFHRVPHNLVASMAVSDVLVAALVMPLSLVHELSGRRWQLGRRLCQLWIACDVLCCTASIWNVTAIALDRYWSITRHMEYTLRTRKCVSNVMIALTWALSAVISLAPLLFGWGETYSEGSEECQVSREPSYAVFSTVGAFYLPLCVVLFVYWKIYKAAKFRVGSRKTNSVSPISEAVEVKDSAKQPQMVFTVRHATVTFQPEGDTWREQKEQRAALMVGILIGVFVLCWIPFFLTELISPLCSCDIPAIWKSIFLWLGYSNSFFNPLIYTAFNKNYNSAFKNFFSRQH

Row | SMILES | inhibition [1] | activity at 10 µM [2] | residual activity [3] | activity at 10 µM [4] | residual activity [5] | inhibition [6] | residual activity [7] | residual activity [8] | residual activity [9] | IC50 [10] | inhibition [11]
1 | CC(=O)N1CCC(c2ccc(C(=O)NC(=N)N)cc2C(F)(F)F)CC1 [BI 9627] | -4.89% | 105% (not active) | 110% | 68% (not active) | 99% | -6.54% | 96% | 61% | 100% |  | 
2 | CC(=O)N1CCC(c2ccc(C(=O)NC3=NCCN3)cc2C(F)(F)F)CC1 [BI 0054] |  |  |  |  |  |  |  |  |  | > 10 µM (not active) | -4.57%
